Measurements reported in patent publication US20150290171A1, “METHODS FOR THE TREATMENT OF BONE LOSS” (CELGENE CORPORATION, priority 2012, published 2015).
Read-outs that look alike come from different tables or passages of the source.

Legend:
sRANKL protein [1] = experiment: OBL culture, sRANKL protein in supernatant (ELISA); format: cell-based, human; conditions: 7 days; for effect on sRANKL protein levels: OBL supernatants; for reduction of sRANKL protein levels: OBL
Procedure: (§1) Normal human OBL (nHOST, Lonza) were grown using OBL basal medium containing 10% fetal bovine serum, ascorbic acid, and gentamicin/amphotericin-B (Lonza). Cells were grown to a density of 5×10^5 cells/mL. Compounds were added and the final concentration of dimethyl sulfoxide (DMSO) was 0.25%. Plates were incubated at 5% CO2, 37° C. for 7 days, changing media every 3 days and adding fresh compound. The supernatant was collected for analysis of RANKL (USCNK Life Science Inc), OPG (R&D Systems), and SOST (R&D Systems) by enzyme-linked immunosorbent assay (ELISA). Cells were stained for ALP.

sRANKL/OPG protein ratio = experiment: OBL culture, sRANKL/OPG protein ratio; format: cell-based, human
Procedure: as §1

RANK gene expression = conditions: OCL cultures
Procedure: Human bone marrow mononuclear cells were differentiated into OCL using 10 nM dexamethasone and 10 nM vitamin D for 7 days. APR (0.1-10 μM) was added with fresh medium on days 0 and 3. […] OCL were lysed and RNA was isolated and converted to cDNA. Reverse transcription polymerase chain reaction (RT-PCR) was performed to measure gene expression of RANK and bone morphogenetic protein 6 (BMP-6).

sRANKL protein [2] = experiment: sRANKL protein levels in OCL cultures; format: cell-based, human
[3] = test system: Phosphodiesterase 4 enzyme; experiment: Inhibition of PDE4 (enzyme purified from U937 cells, [3H]-cAMP); format: biochemical; conditions: PDE4 from U937 human monocytic cells, 1 μM cAMP, 45 min at 30° C.
Procedure: Phosphodiesterase 4 enzyme was purified from U937 human monocytic cells by gel filtration chromatography, and phosphodiesterase reactions were carried out as previously described. See, e.g., Muller et al., Bioorg. Med. Chem. Lett., 1998, 8(19): 2669-2674. Briefly, reactions were carried out in 96-well deep-well plates in 50 mM Tris HCl pH 7.5, 5 mM MgCl2, 1 μM cyclic adenosine monophosphate (cAMP), plus 10 nM [^3H]-cAMP for 45 min at 30° C. The reactions were terminated by boiling, treated with 1 mg/ml snake venom, and separated using AG-1X8 ion exchange resin (BioRad). Reactions consumed less than 15% of available substrate.

BMP-6 gene expression = BMP-6 gene expression in OCL cultures (RT-PCR); format: cell-based, human; conditions: FIG. 5
sRANKL = experiment: OCY differentiation, sRANKL production (ELISA); format: cell-based, human
Procedure: (§2) OBL were differentiated into OCY using hydroxyapatite/tricalcium phosphate biphasic calcium phosphate ceramic particles (Graftys BCP), which were placed into polycarbonate filter well inserts, and the cell culture media was changed every 3 days for a total of 28 days. Gene expression was measured by quantitative RT-PCR for the following: RANK, RANKL, SOST, OPG, mothers against decapentaplegic homolog 1 (SMAD1), collagen 9A2 (COL9A2), vascular endothelial growth factor C (VEGFC), and fibroblast growth factor receptor 1 (FGFR1). Protein production was measured by ELISA.

[4] = test system: RAW 264.7 mouse macrophages; experiment: OCL pit formation; format: cell-based; conditions: RAW 264.7 cells with RANKL 50 ng/mL, FIG. 6 and 7
SOST protein = experiment: OCY differentiation, SOST protein levels (ELISA); format: cell-based, human
Procedure: as §2

OPG protein = experiment: OBL culture, OPG protein in supernatant (ELISA); format: cell-based, human; conditions: 0.1 μM
Procedure: as §1

[5] = test system: Human bone marrow mononuclear cells differentiated into OCL; experiment: OCL differentiation (osteoclastogenesis), number of TRAP-5+ cells; format: cell-based; conditions: OCL cultures, 7 days

O=C(O)c1cc(/N=N/c2ccc(S(=O)(=O)Nc3ccccn3)cc2)ccc1O [sulfasalazine, reference compound]
effect on sRANKL protein levels (sRANKL protein [1]; 30 μM): no significant effect | effect on sRANKL/OPG ratio (sRANKL/OPG protein ratio; 30 μM): no effect

COc1ccc(C2CNC(=O)C2)cc1OC1CCCC1 (stereo not drawn) [Rolipram, rolipram, reference compound]
effect on sRANKL protein levels (sRANKL protein [1]; 10 μM): no significant effect | effect on sRANKL/OPG ratio (sRANKL/OPG protein ratio; 10 μM): no effect

NCCCC(O)(P(=O)(O)O)P(=O)(O)O [Alendronate, alendronate, reference compound]
effect on sRANKL protein levels (sRANKL protein [1]; 10 μM): no significant effect | effect on sRANKL/OPG ratio (sRANKL/OPG protein ratio; 10 μM): no effect | inhibition of RANK gene expression (RANK gene expression; 10 μM): 77%

CCOc1cc([C@@H](CS(C)(=O)=O)N2C(=O)c3cccc(NC(C)=O)c3C2=O)ccc1OC [(+)-2-[1-(3-ethoxy-4-methoxyphenyl)-2-methanesulfonylethyl]-4-acetylaminoisoindolin-1,3-dione]
reduction of sRANKL protein levels (sRANKL protein [2]; 0.1 μM): 25% | reduction of sRANKL protein levels (sRANKL protein [2]; 1 μM): 21% | reduction of sRANKL protein levels (sRANKL protein [2]; 10 μM): 38% | reduction of sRANKL protein levels (sRANKL protein [1]; 1 μM): 25% | reduction of sRANKL protein levels (sRANKL protein [1]; 10 μM): 25% | decrease of sRANKL/OPG protein ratio (sRANKL/OPG protein ratio; 0.1 μM): 39% | decrease of sRANKL/OPG protein ratio (sRANKL/OPG protein ratio; 1 μM): 32% | decrease of sRANKL/OPG protein ratio (sRANKL/OPG protein ratio; 10 μM): 40% | IC50 [3]: 73.5 nM | effect on BMP-6 gene expression (BMP-6 gene expression): increase of BMP-6 gene expression | reduction of sRANKL production (sRANKL; 0.1 μM): 18% | reduction of sRANKL production (sRANKL; 1 μM): 14% | reduction of sRANKL production (sRANKL; 10 μM): 17% | effect on OCL pit formation [4]: inhibition of OCL pit formation | reduction of SOST protein levels (SOST protein; 0.1 μM): 16% | reduction of SOST protein levels (SOST protein; 1 μM): 20% | reduction of SOST protein levels (SOST protein; 10 μM): 14% | increase of OPG protein levels (OPG protein): 42% | inhibition of RANK gene expression (RANK gene expression; 1 μM): 30% | inhibition of RANK gene expression (RANK gene expression; 10 μM): 25% | reduction of number of TRAP-5+ cells ([5]; 0.1 μM): 21% | reduction of number of TRAP-5+ cells ([5]; 1 μM): 49% | reduction of number of TRAP-5+ cells ([5]; 10 μM): 73%
